Tested on: Lawsonia intracellularis
Assay: Embedded early vaccination field study: performance of weaned piglets during the rearing period
Assay type: in vivo
Experimental: The study was carried out in a unit in North Rhine Westphalia with 160 sows and 600 breeding stalls, producing to a weekly cycle with four weeks' suckling. The piglets are sold on for fattening once they reach about 30 kg.
The unit was chosen because clinical ileitis occurred in the rearing quarters of the unit if the animals were not treated with an antibiotic effective against Lawsonia intracellularis for 10 days from the weaning time onwards. More detailed diagnosis found. Lawsonia intracellularis in the faeces of the clinically sick animals and other diarrhea-causing pathogens were ruled out.
Within the course of the study all the piglets were weighed on removal from the sows and individually marked with progressive numbering using an ear tag. A blood sample was taken from each of 15 piglets in each group of weaned animals on the day of removal from the sow and this blood was tested for antibodies to Lawsonia intracellularis. The weaned piglets were put into pens in groups of 10 animals. Four days after weaning every second group of weaned animals was vaccinated with Enterisol® Ileitis (Boehringer Ingelheim) in accordance with the manufacturer's instructions through the drinking water in their trough. The other groups remained unvaccinated. After 3 days without antibiotics following the ileitis vaccination, the piglets of all the weaned groups were subjected to tylosin therapy (10 mg/kg KGW Tylae G 25, Elanco Animal Health) for 18 days starting from the 8th day after weaning. The unvaccinated weaned piglets were also treated with tylosin in the same dosage for 18 days starting from the 8th day after weaning.
On the day of release from their pens, all the piglets were again weighed individually. In addition, blood samples were taken from 10 piglets in each market batch, and the samples were examined for antibodies to Lawsonia intracellularis using ELISA. All the study groups were subjected to identical care and feed conditions. The study encompasses a total of 891 piglets. The absolute weight gain and daily increase in growth were calculated from the weights on removal from the sows and release from the pens. The rearing period was ascertained using the weaning date and date of sale.

CC[C@H]1OC(=O)C[C@@H](O)[C@H](C)[C@@H](O[C@@H]2O[C@H](C)[C@@H](O[C@H]3C[C@@](C)(O)[C@@H](O)[C@H](C)O3)[C@H](N(C)C)[C@H]2O)[C@@H](CC=O)C[C@@H](C)C(=O)/C=C/C(C)=C/[C@@H]1CO[C@@H]1O[C@H](C)[C@@H](O)[C@@H](OC)[C@H]1OC [tylosin]
rearing period (average, weaning date to date of sale): 52.9 days | breeding pens blocked longer than pens containing vaccinated groups (difference in maximum rearing period): 17 days | average gain per day (during rearing period): 404 g per day | Max. growth period (maximum rearing period): 96 days | daily increase (mean daily weight gain during rearing period): 404 g | sale weight (mean weight at end of rearing period): 29.26 kg | Min. growth period (shortest time after which a piglet was sent on for fattening): 31 days
